Experimental data published in patent publication US20070142437A1, “CHEMICAL COMPOUNDS” (priority 2005, published 2007).

Key:
Format in all cases: biochemical
hVEGFR2 = hVEGFR2 (Homo sapiens, UniProt P35968); experiment: VEGFR2 HTRF assay; conditions: Inhibition of VEGFR2
Description: The compounds of the present invention elicit important and measurable pharmacological responses. Different compounds from this class are particularly effective at inhibiting VEGFR2 enzymes, as described by the VEGFR2 HTRF assay below, at concentrations, which range from 0.0001 to 1 μM.
The assays were performed in 96-well black plates. 10 nM hVEGFR2 was used to phosphorylate 0.36 μM peptide (Biotin-Ahx-EEEEYFELVAKKKK) in the presence of 75 μM ATP, 5 mM MgCl2, 0.3 mM DTT, 0.1 mg/ml BSA, and 0.1 M HEPES (pH 7.5). 10 μl 0.5 M EDTA was added to reactions as negative controls. The 50 μl kinase reaction with or without inhibitors in 5% DMSO was carried out at room temperature for 45 minutes, then stopped by 40 μl of 125 mM EDTA. 2.4 μg/ml Streptavidin-APC and 0.15 μg/ml Eu-α-pY, in the presence of 0.1 mg/ml BSA, 0.1 M HEPES (pH7.5), were added to a final volume of 140 μl. The plate was incubated for 10 min at room temperature (22° C.) and read on the Victor with the time resolved fluorescence mode by exciting at 340 nm and reading the emission at 665 nm.
• Peptide from Synpep (Dublin, Calif.) • ATP, MgCl2, DTT, BSA, HEPES, EDTA, DMSO from Sigma Streptavidin-APC from Molecular Probes (Eugene, Oreg.) • Eu-α-pY from EG&G Wallac (Gaithersburg, Md.)

CDK4 = target: T1, CDK4 (Homo sapiens, UniProt P11802); experiment: CDK4 substrate phosphorylation assay (Rb protein, 33P-ATP); conditions: Inhibition of CDK4
T1 construct: made in house
Procedure, shortened: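 Baculovirus-expressed cyclin D1/CDK4 (5-50 nM) phosphorylated 0.5 μM GST-Rb (residues 773-928) with [33P]-ATP (1 nM-20 μM) in 100 mM HEPES pH 7.5, 5-20 mM MgCl2, 2% DMSO for 10-60 min at 30° C. Phosphorylation was counted by scintillation. IC50/pIC50 were fitted over 0.1 nM-50 μM inhibitor.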

CDK2 = target: T2, CDK2 (Homo sapiens, UniProt P24941); experiment: CDK2 substrate phosphorylation assay (biotinylated peptide, 32P-ATP); conditions: Inhibition of CDK2
T2 construct: made in house
Description: The compounds of the present invention have valuable pharmacologic properties. Different compounds from this class are particularly effective at inhibiting CDK2 and/or CDK4 enzymes at concentrations, which range from 0.0001 to 1 μM and additionally show specificity relative to other kinases. Substrate phosphorylation assays were carried out as follows:
Cyclin dependent protein kinase 2 assays utilized the peptide Biotin-aminohexyl-ARRPMSPKKKA-NH2 as phosphoryl group acceptor. CDK2 was expressed utilizing a baculovirus expression system and was partially purified to comprise 20-80% of total protein, with no detectable competing reactions present. Typically, assays were performed by incubating enzyme (0.2-10 nM), with and without inhibitor, peptide substrate (1-10 nM), [g-^32P]ATP (1-20 nM), and 10-20 mM Mg^2+ for periods of time generally within the range 10-120 minutes. Reactions were terminated with 0.2-2 volumes of either 20% acetic acid or 50-100 mM EDTA buffered to pH 7 (substrate consumption <20%). The buffer employed in enzyme assay was 100 mM HEPES pH 7.5 containing 0.1 mg/mL BSA and 5% DMSO. Inhibitors were diluted in 100% DMSO prior to addition into the assay. Detection of peptide phosphorylation was accomplished by scintillation counting following either collection of peptide onto phosphocellulose filters (for reactions stopped with acetic acid), collection of peptide in wells of 96 well plates coated with Streptavidin (Pierce) (reactions were stopped with EDTA), or addition of Avidin coated Scintillant impregnated beads (Scintillation Proximity Assays from Amersham, reactions were stopped with EDTA). Counts detected by any of these methodologies minus the appropriate background (assays with additional 40 mM EDTA or lacking peptide substrate) were assumed to be proportional to the reaction initial rates, and IC50s were determined by a least squares fit to the equation CPM=Vmax*(1−([I]/(K+[I])))+nsb, or −pIC50s were determined by a fit to the equation CPM=nsb+(Vmax−nsb)/(1+(x/10^x−pIC50)), where nsb are the background counts. Filters are washed four times with 75 mM phosphoric acid. Radioactivity was determined by liquid scintillation counting.

T1 sequence (P11802 whole entry, species assumed): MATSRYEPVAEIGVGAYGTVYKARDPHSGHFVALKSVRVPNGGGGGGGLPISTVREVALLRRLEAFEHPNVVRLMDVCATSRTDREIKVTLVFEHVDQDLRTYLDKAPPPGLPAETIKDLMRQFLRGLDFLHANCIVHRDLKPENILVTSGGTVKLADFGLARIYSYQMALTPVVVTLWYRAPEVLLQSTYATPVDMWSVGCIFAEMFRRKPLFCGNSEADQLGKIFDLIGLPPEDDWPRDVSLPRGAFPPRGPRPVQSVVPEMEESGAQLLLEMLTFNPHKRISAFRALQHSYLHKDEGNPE
T1 sequence (P24385 whole entry partner, species assumed): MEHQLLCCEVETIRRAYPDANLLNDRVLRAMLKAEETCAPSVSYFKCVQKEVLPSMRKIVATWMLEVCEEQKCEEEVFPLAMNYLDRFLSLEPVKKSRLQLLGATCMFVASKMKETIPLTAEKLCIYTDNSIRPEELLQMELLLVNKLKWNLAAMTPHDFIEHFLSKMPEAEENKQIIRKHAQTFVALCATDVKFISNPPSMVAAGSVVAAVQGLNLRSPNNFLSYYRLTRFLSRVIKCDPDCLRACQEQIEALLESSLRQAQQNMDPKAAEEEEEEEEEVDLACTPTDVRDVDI
hVEGFR2, sequence (P35968 20-1356): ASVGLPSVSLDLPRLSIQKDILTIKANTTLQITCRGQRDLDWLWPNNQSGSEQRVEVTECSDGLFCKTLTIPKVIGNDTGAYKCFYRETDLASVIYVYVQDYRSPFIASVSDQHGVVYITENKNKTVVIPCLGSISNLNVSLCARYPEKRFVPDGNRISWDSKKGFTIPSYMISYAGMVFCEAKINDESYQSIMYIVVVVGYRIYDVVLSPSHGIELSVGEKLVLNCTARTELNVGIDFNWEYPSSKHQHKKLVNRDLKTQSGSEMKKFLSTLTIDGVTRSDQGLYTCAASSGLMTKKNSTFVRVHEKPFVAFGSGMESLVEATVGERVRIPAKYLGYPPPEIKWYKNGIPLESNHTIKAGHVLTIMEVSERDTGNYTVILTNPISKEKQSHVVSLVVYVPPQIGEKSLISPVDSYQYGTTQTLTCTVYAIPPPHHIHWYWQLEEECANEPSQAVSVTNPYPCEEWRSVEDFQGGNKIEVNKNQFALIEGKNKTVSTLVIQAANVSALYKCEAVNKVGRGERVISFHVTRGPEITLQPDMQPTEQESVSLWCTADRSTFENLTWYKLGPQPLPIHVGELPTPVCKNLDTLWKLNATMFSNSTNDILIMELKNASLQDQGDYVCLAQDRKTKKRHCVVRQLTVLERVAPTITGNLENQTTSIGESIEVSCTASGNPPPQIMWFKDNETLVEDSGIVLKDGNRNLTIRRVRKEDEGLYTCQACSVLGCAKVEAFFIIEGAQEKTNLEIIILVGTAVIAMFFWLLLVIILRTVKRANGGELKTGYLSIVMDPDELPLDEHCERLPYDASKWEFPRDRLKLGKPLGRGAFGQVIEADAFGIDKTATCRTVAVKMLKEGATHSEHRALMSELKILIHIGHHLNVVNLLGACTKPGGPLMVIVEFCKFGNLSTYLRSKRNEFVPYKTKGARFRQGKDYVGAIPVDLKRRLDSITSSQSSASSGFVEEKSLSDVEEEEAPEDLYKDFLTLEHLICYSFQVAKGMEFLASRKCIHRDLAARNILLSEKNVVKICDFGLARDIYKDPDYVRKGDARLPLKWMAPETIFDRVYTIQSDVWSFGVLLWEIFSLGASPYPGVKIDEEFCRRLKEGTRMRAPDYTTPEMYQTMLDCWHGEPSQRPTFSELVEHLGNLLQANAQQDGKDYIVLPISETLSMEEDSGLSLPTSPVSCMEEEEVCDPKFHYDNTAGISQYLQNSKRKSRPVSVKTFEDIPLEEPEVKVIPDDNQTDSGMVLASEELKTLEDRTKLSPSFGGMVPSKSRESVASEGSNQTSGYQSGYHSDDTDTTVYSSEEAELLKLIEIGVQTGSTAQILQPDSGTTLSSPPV

| Compound | IC50 (hVEGFR2) [nM] | IC50 (CDK4) [nM] | IC50 (CDK2) [nM] |
| --- | --- | --- | --- |
| COc1cccc(-c2cnc(Nc3ccc(CCN(C)C)cc3)o2)c1 [Example 42] | < 1000 | < 100 | < 1000 |
| COc1cccc(-c2cnc(Nc3ccc(CN4CCCCC4)cc3)o2)c1 [Example 43, 5-(3-methoxyphenyl)-N-[4-(piperidin-1-ylmethyl)phenyl]-1,3-oxazol-2-amine] | < 1000 | < 100 | < 1000 |
| CCN(CC)Cc1ccc(Nc2ncc(-c3cccc(OC)c3)o2)cc1 [Example 45, N-{4-[(diethylamino)methyl]phenyl}-5-(3-methoxyphenyl)-1,3-oxazol-2-amine] | < 1000 | < 100 | < 1000 |
| CCN(CC)CCNC(=O)c1ccc(Nc2ncc(-c3cccc(OC)c3)o2)cc1 [Example 46, N-[2-(diethylamino)ethyl]-4-{[5-(3-methoxyphenyl)-1,3-oxazol-2-yl]amino}benzamide] | < 1000 | < 1000 | < 1000 |
| COc1cccc(-c2cnc(Nc3ccc(C(=O)N4CCN(C)CC4)cc3)o2)c1 [Example 47, 5-(3-methoxyphenyl)-N-{4-[(4-methylpiperazin-1-yl)carbonyl]phenyl}-1,3-oxazol-2-amine] | < 1000 | < 1000 | < 1000 |
| CCN(CC)CCNC(=O)c1ccc(Nc2ncc(-c3cccc(OC4CCCC4)c3)o2)cc1 [Example 48, 4-({5-[3-(cyclopentyloxy)phenyl]-1,3-oxazol-2-yl}amino)-N-[2-(diethylamino)ethyl]benzamide] | < 1000 | < 100 | < 1000 |

Next, values leading:

| IC50 (hVEGFR2) [nM] | IC50 (CDK4) [nM] | IC50 (CDK2) [nM] | Compound |
| --- | --- | --- | --- |
| < 1000 | < 1000 | < 1000 | CN1CCN(Cc2ccc(Nc3ncc(-c4ccccc4)o3)cc2)CC1 [Example 39, N-{4-[(4-methylpiperazin-1-yl)methyl]phenyl}-5-phenyl-1,3-oxazol-2-amine] |
| < 1000 | < 100 | < 1000 | COc1cccc(-c2cnc(Nc3ccc(CN(C)C)cc3)o2)c1 [Example 40, N-{4-[(dimethylamino)methyl]phenyl}-5-(3-methoxyphenyl)-1,3-oxazol-2-amine] |
| < 100 | < 100 | < 1000 | COc1cccc(-c2cnc(Nc3ccc(CN4CCCC4)cc3)o2)c1 [Example 44, 5-(3-methoxyphenyl)-N-[4-(pyrrolidin-1-ylmethyl)phenyl]-1,3-oxazol-2-amine] |
